Tests used:
Experiment in all cases: Caliper, Mobility shift assay off-chip
PRKCB2 (human) = PRKCB2 (human) (UniProt P05771)
MAP4K4 (human) = MAP4K4 (human) (UniProt O95819)
CDK2 (human) = CDK2 (human) (UniProt P24941)
RPS6KA1 KD1 KD2 (human) = RPS6KA1 KD1 KD2 (human) (UniProt Q15418)
RPS6KA3 KD1 KD2 (human) = RPS6KA3 KD1 KD2 (human) (UniProt P51812)
FER (human) = FER (human) (UniProt P16591); conditions: compound 0.1 µM
AKT1 (human) = AKT1 (human) (UniProt P31749)
MAPK3 (human) = MAPK3 (human) (UniProt P27361)
Chain of MAPK3 (human) (P27361 whole entry, looked up): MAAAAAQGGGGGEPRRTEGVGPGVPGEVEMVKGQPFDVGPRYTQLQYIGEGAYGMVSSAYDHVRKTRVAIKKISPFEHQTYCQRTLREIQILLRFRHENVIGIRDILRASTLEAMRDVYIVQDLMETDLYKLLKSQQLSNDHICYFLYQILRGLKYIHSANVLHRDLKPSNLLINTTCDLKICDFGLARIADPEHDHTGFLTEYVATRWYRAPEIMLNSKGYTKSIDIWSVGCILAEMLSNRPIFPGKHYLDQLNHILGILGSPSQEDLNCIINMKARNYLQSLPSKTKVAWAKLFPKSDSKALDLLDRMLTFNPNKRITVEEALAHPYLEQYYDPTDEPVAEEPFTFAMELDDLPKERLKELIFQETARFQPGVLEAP

LYN (human) = LYN (human) (UniProt P07948)
SYK (human) = SYK (human) (UniProt P43405)
CSNK1A1 (human) = CSNK1A1 (human) (UniProt P48729)
Chain of CSNK1A1 (human) (P48729 whole entry, looked up): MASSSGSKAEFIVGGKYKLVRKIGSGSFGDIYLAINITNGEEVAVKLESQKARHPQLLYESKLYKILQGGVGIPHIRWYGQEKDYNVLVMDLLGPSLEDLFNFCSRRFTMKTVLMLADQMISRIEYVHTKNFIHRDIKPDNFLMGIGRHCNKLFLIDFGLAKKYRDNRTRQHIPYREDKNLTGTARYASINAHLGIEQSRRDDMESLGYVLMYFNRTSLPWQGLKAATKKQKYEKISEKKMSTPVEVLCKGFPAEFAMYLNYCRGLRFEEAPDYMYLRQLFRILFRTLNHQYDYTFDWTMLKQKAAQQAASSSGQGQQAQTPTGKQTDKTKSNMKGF

CAMK4 (human) = CAMK4 (human) (UniProt Q16566)
FGFR1 (human) = FGFR1 (human) (UniProt P11362)
Chain of FGFR1 (human) (P11362 whole entry, looked up): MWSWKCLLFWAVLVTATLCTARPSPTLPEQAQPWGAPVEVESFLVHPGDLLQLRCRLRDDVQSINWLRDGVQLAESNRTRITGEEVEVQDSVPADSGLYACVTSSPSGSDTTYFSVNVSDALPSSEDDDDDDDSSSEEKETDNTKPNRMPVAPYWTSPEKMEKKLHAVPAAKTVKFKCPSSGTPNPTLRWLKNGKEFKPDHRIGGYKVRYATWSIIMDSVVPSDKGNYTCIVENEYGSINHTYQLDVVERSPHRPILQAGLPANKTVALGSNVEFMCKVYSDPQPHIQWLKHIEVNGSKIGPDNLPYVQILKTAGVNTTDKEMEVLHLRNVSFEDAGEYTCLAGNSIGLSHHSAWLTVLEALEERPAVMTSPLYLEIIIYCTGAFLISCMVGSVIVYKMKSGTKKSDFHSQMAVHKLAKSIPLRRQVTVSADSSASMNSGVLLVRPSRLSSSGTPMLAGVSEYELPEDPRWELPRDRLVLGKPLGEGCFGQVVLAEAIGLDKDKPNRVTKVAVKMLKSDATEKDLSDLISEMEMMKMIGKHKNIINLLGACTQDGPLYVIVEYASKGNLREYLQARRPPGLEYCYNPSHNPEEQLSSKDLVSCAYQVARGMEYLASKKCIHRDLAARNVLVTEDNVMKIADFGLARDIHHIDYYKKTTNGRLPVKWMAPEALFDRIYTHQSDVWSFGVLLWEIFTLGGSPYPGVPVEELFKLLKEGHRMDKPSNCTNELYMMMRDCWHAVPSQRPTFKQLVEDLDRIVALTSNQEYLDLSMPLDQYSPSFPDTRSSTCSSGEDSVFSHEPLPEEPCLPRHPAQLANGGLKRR

SGK1 (human) = SGK1 (human) (UniProt O00141)
Chain of SGK1 (human) (O00141 whole entry, looked up): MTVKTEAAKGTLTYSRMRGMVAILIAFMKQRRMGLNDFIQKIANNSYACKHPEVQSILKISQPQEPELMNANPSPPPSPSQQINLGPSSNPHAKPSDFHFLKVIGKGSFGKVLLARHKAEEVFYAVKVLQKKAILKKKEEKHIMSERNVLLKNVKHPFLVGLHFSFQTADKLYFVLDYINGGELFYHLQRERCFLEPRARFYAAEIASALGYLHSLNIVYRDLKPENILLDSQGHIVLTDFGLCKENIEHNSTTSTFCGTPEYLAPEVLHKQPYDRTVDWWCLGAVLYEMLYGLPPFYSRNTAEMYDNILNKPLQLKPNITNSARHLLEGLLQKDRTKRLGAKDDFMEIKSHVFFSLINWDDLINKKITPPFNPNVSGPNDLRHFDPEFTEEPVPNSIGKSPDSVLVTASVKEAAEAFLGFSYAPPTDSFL

EGFR (human) = EGFR (human) (UniProt P00533); conditions: compound 0.1 µM
ABL1 (human) = ABL1 (human) (UniProt P00519)
MAPKAPK5 (human) = MAPKAPK5 (human) (UniProt Q8IW41)
STK3 (human) = STK3 (human) (UniProt Q13188)
BMX (human) = BMX (human) (UniProt P51813)
CAMK2D (human) = CAMK2D (human) (UniProt Q13557)
Chain of CAMK2D (human) (Q13557 whole entry, looked up): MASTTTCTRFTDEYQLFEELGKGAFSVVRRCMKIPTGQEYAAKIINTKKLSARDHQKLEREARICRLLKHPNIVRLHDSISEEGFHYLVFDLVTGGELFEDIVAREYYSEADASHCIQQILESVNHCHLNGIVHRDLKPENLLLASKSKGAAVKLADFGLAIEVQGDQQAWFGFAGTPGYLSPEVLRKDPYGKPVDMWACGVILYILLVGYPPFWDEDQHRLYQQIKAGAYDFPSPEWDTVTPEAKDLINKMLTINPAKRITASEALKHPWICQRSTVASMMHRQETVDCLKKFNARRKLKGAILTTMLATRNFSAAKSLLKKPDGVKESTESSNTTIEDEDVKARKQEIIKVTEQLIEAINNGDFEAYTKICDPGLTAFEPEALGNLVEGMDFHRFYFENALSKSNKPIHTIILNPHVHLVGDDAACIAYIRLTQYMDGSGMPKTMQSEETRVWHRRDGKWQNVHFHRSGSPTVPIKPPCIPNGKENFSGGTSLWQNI

PAK2 (human) = PAK2 (human) (UniProt Q13177)
Chain of PAK2 (human) (Q13177 whole entry, looked up): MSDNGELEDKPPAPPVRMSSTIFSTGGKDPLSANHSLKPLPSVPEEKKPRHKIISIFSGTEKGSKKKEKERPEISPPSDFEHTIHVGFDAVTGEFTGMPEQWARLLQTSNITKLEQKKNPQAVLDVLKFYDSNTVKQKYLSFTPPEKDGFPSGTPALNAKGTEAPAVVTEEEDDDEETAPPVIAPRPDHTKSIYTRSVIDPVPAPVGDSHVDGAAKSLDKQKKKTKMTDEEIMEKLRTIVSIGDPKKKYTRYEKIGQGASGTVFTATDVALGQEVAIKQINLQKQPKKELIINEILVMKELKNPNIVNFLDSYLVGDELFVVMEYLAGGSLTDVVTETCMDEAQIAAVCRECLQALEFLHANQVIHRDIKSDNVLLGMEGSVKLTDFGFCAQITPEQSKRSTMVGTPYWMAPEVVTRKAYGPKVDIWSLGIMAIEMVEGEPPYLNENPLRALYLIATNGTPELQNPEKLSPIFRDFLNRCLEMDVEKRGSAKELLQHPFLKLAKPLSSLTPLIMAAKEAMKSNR

AKT2 (human) = AKT2 (human) (UniProt P31751)
DCLK2 (human) = DCLK2 (human) (UniProt Q8N568)
Chain of DCLK2 (human) (Q8N568 whole entry, looked up): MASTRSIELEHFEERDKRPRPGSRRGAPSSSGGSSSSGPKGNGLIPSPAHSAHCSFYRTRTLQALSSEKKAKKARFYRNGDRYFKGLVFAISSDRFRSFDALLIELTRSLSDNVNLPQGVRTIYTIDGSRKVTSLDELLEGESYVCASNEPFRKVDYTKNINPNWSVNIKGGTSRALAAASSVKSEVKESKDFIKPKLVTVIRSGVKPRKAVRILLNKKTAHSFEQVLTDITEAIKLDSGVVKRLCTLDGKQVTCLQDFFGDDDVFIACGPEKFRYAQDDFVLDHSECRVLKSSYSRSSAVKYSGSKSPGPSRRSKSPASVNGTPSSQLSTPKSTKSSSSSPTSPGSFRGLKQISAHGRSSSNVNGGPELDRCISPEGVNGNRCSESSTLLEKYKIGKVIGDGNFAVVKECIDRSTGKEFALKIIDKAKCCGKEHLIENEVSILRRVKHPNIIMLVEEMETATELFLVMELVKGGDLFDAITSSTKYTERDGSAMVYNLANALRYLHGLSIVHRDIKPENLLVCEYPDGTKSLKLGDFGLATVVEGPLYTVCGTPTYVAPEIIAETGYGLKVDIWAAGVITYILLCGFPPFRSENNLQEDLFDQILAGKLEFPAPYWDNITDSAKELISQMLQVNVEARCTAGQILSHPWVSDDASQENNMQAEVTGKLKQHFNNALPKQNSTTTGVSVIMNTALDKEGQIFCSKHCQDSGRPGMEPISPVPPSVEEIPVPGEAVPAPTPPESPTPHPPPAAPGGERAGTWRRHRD

AURKA (human) = AURKA (human) (UniProt O14965)
AKT3 (human) = AKT3 (human) (UniProt Q9Y243)
Chain of AKT3 (human) (Q9Y243 whole entry, looked up): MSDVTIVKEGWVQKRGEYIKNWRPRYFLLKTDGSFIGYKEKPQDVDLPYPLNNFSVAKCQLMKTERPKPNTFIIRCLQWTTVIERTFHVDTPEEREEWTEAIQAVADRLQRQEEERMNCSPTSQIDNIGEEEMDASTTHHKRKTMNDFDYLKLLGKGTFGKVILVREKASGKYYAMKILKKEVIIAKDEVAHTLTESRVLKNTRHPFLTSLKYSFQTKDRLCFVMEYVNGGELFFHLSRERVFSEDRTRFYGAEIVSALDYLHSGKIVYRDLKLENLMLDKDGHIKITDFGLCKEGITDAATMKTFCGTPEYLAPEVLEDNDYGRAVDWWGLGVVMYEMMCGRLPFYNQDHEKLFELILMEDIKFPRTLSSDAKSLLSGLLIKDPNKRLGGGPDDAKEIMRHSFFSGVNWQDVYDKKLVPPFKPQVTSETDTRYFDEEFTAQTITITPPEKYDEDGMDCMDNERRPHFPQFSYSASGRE

Chain of RPS6KA3 KD1 KD2 (human) (P51812 whole entry, looked up): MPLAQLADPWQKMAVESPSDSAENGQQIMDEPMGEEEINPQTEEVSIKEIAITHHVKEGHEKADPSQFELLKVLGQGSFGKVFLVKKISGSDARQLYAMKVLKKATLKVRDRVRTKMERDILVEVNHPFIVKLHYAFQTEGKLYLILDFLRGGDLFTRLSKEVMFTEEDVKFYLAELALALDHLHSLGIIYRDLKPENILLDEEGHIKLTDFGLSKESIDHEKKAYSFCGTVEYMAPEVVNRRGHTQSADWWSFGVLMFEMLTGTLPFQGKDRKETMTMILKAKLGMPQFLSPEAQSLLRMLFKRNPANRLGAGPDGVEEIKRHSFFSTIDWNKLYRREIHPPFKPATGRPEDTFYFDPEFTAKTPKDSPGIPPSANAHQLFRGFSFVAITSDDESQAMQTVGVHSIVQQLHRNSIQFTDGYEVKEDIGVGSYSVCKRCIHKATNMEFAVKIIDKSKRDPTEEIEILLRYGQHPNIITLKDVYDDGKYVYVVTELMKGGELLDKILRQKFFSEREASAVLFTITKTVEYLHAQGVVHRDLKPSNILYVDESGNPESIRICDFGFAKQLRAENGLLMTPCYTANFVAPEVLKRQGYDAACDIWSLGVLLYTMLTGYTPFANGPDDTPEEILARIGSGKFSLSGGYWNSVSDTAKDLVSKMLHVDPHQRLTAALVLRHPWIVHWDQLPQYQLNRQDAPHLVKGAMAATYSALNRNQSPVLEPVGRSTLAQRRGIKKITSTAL

In the case of Cn1cc(-c2cnc3ccc4ccc(CS(=O)(=O)CCc5ccccn5)cc4c(=O)c3c2)cn1, the inhibition (PRKCB2 (human); compound 0.1 µM) is reported as -4.2%, the inhibition (PRKCB2 (human); compound 1.0 µM) is reported as -10.6% and the inhibition (MAP4K4 (human); compound 0.1 µM) is reported as -2%. The inhibition (MAP4K4 (human); compound 1.0 µM) was 10.6%, the inhibition (CDK2 (human); compound 0.1 µM) was -6.3% and the inhibition (CDK2 (human); compound 1.0 µM) was -3.4%. It also gave an inhibition (RPS6KA1 KD1 KD2 (human); compound 0.1 µM) of -15.2%, an inhibition (RPS6KA1 KD1 KD2 (human); compound 1.0 µM) of -0.8% and an inhibition (RPS6KA3 KD1 KD2 (human); compound 0.1 µM) of -9.2%. For the same compound, the inhibition (RPS6KA3 KD1 KD2 (human); compound 1.0 µM) was -1.3%, the inhibition (FER (human)) was -6.8% and the inhibition (AKT1 (human); compound 0.1 µM) was -1.3%. The inhibition (AKT1 (human); compound 1.0 µM) was 0.7%, the inhibition (MAPK3 (human); compound 0.1 µM) was -10.8% and the inhibition (MAPK3 (human); compound 1.0 µM) was -1.3%. The inhibition (LYN (human); compound 0.1 µM) was -7.4%, the inhibition (LYN (human); compound 1.0 µM) was 5.9% and the inhibition (SYK (human); compound 0.1 µM) was 1.2%. The inhibition (SYK (human); compound 1.0 µM) was -1.7%, the inhibition (CSNK1A1 (human); compound 0.1 µM) was -8.6% and the inhibition (CSNK1A1 (human); compound 1.0 µM) was -0.9%. For the same compound, the inhibition (CAMK4 (human); compound 0.1 µM) was -0.1%, the inhibition (CAMK4 (human); compound 1.0 µM) was 3.5% and the inhibition (FGFR1 (human); compound 0.1 µM) was 12.3%. For the same compound, the inhibition (FGFR1 (human); compound 1.0 µM) was 61.2%, the inhibition (SGK1 (human); compound 0.1 µM) was 1.7% and the inhibition (SGK1 (human); compound 1.0 µM) was -6.4%. The inhibition (EGFR (human)) was -5.8%, the inhibition (ABL1 (human); compound 0.1 µM) was 0.2% and the inhibition (ABL1 (human); compound 1.0 µM) was 11.6%. It also gave an inhibition (MAPKAPK5 (human); compound 0.1 µM) of -20.9%, an inhibition (MAPKAPK5 (human); compound 1.0 µM) of 4.4% and an inhibition (STK3 (human); compound 0.1 µM) of 3.4%. It also gave an inhibition (STK3 (human); compound 1.0 µM) of 0.7%, an inhibition (BMX (human); compound 0.1 µM) of -7.2% and an inhibition (BMX (human); compound 1.0 µM) of 8.8%. For the same compound, the inhibition (CAMK2D (human); compound 0.1 µM) was -16.1%, the inhibition (CAMK2D (human); compound 1.0 µM) was -3.6% and the inhibition (PAK2 (human); compound 0.1 µM) was -38.4%. For the same compound, the inhibition (PAK2 (human); compound 1.0 µM) was -0.3%, the inhibition (AKT2 (human); compound 0.1 µM) was -0.1% and the inhibition (AKT2 (human); compound 1.0 µM) was -0.5%. For the same compound, the inhibition (DCLK2 (human); compound 0.1 µM) was -6.4%, the inhibition (DCLK2 (human); compound 1.0 µM) was -2.5% and the inhibition (AURKA (human); compound 0.1 µM) was 15.8%. For the same compound, the inhibition (AURKA (human); compound 1.0 µM) was 48%, the inhibition (AKT3 (human); compound 0.1 µM) was 6.4% and the inhibition (AKT3 (human); compound 1.0 µM) was -5.8%.

From the kinase profiling compilation of Christmann-Franck et al. (2016)
